The text below walks through data of US5475001A, “Quinazoline derivatives” (Zeneca Limited, priority 1993, dated 1995).

The subject of assay [1] is liver hepatocyte growth. Nature of the assay: in vivo inhibition of TGFα-stimulated liver hepatocyte growth in male rats (Test (c)). The following applies: Rattus norvegicus, po. On the procedure: (c) An in vivo assay in a group of male rats which determines the ability of a test compound (usually administered orally as a ball-milled suspension in 0.5% polysorbate) to inhibit the stimulation of liver hepatocyte growth caused by the administration of the growth factor TGFα (400 μg/kg subcutaneously, usually dosed twice, 3 and 7 hours respectively after the administration of the test compound).
In a control group of rats, the administration of TGFα causes on average a 5-fold stimulation of liver hepatocyte growth.
Cell-growth in the control and test animals is determined as follows:
On the morning of the day after the dosing of the test compound (or 0.5% polysorbate in the control group), the animals are dosed with bromodeoxyuridine (BrdU; 100 mg/kg intraperitoneally). The animals are killed four hours later and the livers are excised.
Further tests were carried out using a range of doses of the test compounds to allow the calculation of an approximate ED50 value for the inhibition of liver hepatocyte proliferation as determined by inhibition of the uptake of BrdU.

In assay [2] the target is T1, receptor tyrosine kinase (Homo sapiens, UniProt P00533).
T1 construct: Receptor tyrosine kinase was obtained in partially purified form from A-431 cells; endogenous in cells; host or cells: A-431 cells (human vulval carcinoma), Triton X-100 solubilised membrane extract
T1 sequence (P00533 25-1210): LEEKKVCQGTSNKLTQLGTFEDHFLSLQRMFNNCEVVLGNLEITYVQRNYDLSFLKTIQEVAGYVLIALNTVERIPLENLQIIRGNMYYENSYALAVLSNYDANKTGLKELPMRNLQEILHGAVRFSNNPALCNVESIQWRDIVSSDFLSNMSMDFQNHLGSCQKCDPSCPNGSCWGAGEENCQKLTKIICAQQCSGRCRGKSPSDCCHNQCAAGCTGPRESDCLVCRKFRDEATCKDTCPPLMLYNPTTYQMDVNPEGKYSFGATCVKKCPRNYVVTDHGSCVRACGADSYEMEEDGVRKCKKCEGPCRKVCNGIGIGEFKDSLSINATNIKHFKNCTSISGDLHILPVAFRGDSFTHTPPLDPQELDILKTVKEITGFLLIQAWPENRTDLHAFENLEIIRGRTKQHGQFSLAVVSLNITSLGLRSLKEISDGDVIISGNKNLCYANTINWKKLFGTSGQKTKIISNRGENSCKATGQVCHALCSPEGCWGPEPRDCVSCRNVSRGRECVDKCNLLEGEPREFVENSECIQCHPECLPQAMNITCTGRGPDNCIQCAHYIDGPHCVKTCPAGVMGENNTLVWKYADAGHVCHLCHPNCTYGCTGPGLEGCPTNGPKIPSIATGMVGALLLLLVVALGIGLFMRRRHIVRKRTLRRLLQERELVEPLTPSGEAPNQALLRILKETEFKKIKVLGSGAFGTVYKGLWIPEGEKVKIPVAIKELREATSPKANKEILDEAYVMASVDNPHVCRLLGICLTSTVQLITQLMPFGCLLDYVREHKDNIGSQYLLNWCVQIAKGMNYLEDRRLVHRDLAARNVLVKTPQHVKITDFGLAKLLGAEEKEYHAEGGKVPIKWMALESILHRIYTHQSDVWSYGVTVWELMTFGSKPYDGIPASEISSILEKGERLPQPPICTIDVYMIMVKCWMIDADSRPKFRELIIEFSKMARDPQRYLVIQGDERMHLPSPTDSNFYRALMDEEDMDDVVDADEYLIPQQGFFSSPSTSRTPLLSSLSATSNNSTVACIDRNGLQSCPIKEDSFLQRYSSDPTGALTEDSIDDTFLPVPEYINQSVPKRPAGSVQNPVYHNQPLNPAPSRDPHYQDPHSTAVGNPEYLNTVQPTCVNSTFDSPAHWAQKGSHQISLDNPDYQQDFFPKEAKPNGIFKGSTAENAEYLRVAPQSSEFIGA
T1 sequence (P01133 971-1023 partner limits assumed): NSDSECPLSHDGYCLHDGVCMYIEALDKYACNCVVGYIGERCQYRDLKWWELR
The experiment in a line: in vitro inhibition of the enzyme receptor tyrosine kinase (Test (a)). The following applies: enzyme from A-431 cells, EGF stimulated. The class given is biochemical. On the procedure:
(a) An in vitro assay which determines the ability of a test compound to inhibit the enzyme receptor tyrosine kinase. Receptor tyrosine kinase was obtained in partially purified form from A-431 cells (derived from human vulval carcinoma) by procedures related to those described by Carpenter et. al., J. Biol. Chem., 1979, 254, 4884, Cohen et al., J. Biol. Chem., 1982, 257, 1523 and by Braun et al., J. Biol. Chem., 1984, 259, 2051.
A-431 cells were grown to confluence using Dulbecco's modified Eagle's medium (DMEM) containing 5% fetal calf serum (FCS). The obtained cells were homogenised in a hypotonic borate/EDTA buffer at pH 10.1. The homogenate was centrifuged at 400 g for 10 minutes at 0°-4° C. The supernatant was centrifuged at 25,000 g for 30 minutes at 0°-4° C. The pelleted material was suspended in 30 mM Hepes buffer at pH 7.4 containing 5% glycerol, 4 mM benzamidine and 1% Triton X-100, stirred for 1 hour at 0°-4° C., and recentrifuged at 100,000 g for 1 hour at 0°-4° C. The supernatant, containing solubilised receptor tyrosine kinase, was stored in liquid nitrogen.
For test purposes 40 μl of the enzyme solution so obtained was added to a mixture of 400 μl of a mixture of 150 mM Hepes buffer at pH 7.4, 500 μM sodium orthovanadate, 0.1% Triton X-100, 10% glycerol, 200 μl water, 80 μl of 25 mM DTT and 80μl of a mixture of 12.5 mM manganese chloride, 125 mM magnesium chloride and distilled water. There was thus obtained the test enzyme solution. […]
The test compound/EGF mixture solution (5 μl) was added to the test enzyme solution (10 μl) and the mixture was incubated at 0°-4° C. for 30 minutes. […] Radioactivity present in the filter paper was measured using a liquid scintillation counter (Sequence A). […]
Receptor tyrosine kinase inhibition was calculated as follows: [formula]
The extent of inhibition was then determined at a range of concentrations of test compound to give an IC50 value.

Assay [3] has as its system human naso-pharyngeal cancer cell line KB. Nature of the assay: in vitro inhibition of the growth of the human naso-pharyngeal cancer cell line KB (Test (b)). The class given is cell-based. The settings on record: 72 h, KB cells, EGF (10 ng/ml), 3 days, MTT. On the procedure: (b) An in vitro assay which determines the ability of a test compound to inhibit the growth of the human naso-pharyngeal cancer cell line KB.
KB cells were seeded into wells at a density of 1×10^4 -1.5×10^4 cells per well and grown for 24 hours in DMEM supplemented with 5% FCS (charcoal-stripped). Cell growth was determined after incubation for 3 days by the extent of metabolism of MTT tetrazolium dye to furnish a bluish colour. Cell growth was then determined in the presence of EGF (10 ng/ml) or in the presence of EGF (10 ng/ml) and a test compound at a range of concentrations. An IC50 value could then be calculated.

Assay [4] relates to another carcinoma which does not express EGF receptor tyrosine kinase. The settings on record: Toi et al., 1990; cited from earlier work.
Assay [5] has as its system human mammary carcinoma which expresses epidermal growth factor (EGF) receptor tyrosine kinase. The settings on record: athymic nude mice; Toi et al., 1990; cited from earlier work.

In the case of `COc1cc2c(Nc3ccc(F)c(Cl)c3)ncnc2cc1F` [4-(3'-chloro-4'-fluoroanilino)-7-fluoro-6-methoxyquinazoline], the ED50 in assay [1] is under 12.5 mg/kg. The IC50 in assay [2] turned out to be 70 nM; in assay [3] it was 530 nM.
Take `Cc1cccc(Nc2ncnc3cc(F)c(NC(=O)CCl)cc23)c1` [6-(2-chloroacetamido)-7-fluoro-4-(3'-methylanilino)quinazoline]: the IC50 was 10 nM in assay [2] and 20 nM in assay [3].
As for `Cc1cccc(Nc2ncnc3cc(F)c(N)cc23)c1` [6-amino-7-fluoro-4-(3'-methylanilino)quinazoline], in assay [1], the ED50 was under 40 mg/kg. Further, the IC50 in assay [2] was determined as 75 nM; in assay [3], 680 nM.
As to `O=CN/C=C/c1cc(O)ccc1O` [erbstatin], the “growth of another carcinoma which does not express EGF receptor tyrosine kinase” value in assay [4] was “without effect on the growth”. The “growth of transplanted human mammary carcinoma expressing EGF receptor tyrosine kinase” value in assay [5] is given as “specifically attenuates the growth”.

By ED50 is commonly meant the dose that gives a 50% effect, or the effect in half of the subjects. As usually defined, the IC50 is the midpoint of a concentration-inhibition curve.
